Some test systems named below: A498; CCRF-CEM; COLO 205; EKVX; HCT-116; HL-60; HOP-62; HT-29; KM12; LOX IMVI; NCI-H460; NCI-H522; RPMI-8226; RXF 393; SF-268; SK-MEL-5; SN12C; UACC-257; UO-31; SR.
Common to all, as to assay: NCI tumour cell line growth inhibition, 48 h

Molecules are shown by their SMILES.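 96-well plates; 48 h exposure; 5 concentrations. Endpoints by linear interpolation between flanking doses. Not reached: highest tested concentration assigned. GI50 = concentration required for 50% inhibition of growth.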 The source made the active and inactive calls. No stated cut-off is given here; in the data, active = GI50 up to about 1.1 µM and inactive = higher.

For `C[C@]12CCC(=O)C(O)=C1CC[C@@H]1C2CC[C@]2(C)NC(=O)CCC12` (stereo partly specified), the GI50 with A498, in the test with CCRF-CEM, in the test with COLO 205, with EKVX, with HCT-116 and in the test with HL-60 was > 100 µM (inactive) each time. Also, the GI50 with HOP-62, in the test with HT-29, with KM12, in the test with LOX IMVI, in the test with NCI-H460 and with NCI-H522 was > 100 µM (inactive) each time. The GI50 in the test with RPMI-8226, in the test with RXF 393, in the test with SF-268, in the test on SK-MEL-5, in the test with SN12C and in the test on UACC-257 was > 100 µM (inactive) in each case. For the same molecule, the GI50 in the test with UO-31 is > 100 µM (inactive).

With `COc1ccc(Nc2nc(N)c(C(=O)c3ccc(Cl)cc3)s2)cc1`, the GI50 with A498 was < 0.01 µM (active); in the test on CCRF-CEM it was < 0.01 µM (active); in the test on COLO 205, 0.0261 µM (active); with EKVX, 39.6 µM (inactive); in the test on HCT-116, < 0.01 µM (active); with HL-60 it was < 0.01 µM (active). Also, the GI50 in the test on HOP-62 is < 0.01 µM (active); in the test on HT-29 it was < 0.0108 µM (active); with KM12, 0.0432 µM (active); in the test with LOX IMVI, < 0.01 µM (active); in the test with NCI-H460, < 0.01 µM (active); with NCI-H522, < 0.01 µM (active). For the same molecule, the GI50 in the test with RPMI-8226 was < 0.01 µM (active); in the test on RXF 393, < 0.01 µM (active); in the test with SF-268, 0.297 µM (active); in the test with SK-MEL-5 it was 0.0123 µM (active); in the test on SN12C it was 0.307 µM (active); in the test on UACC-257, 42.9 µM (inactive). Moreover, the GI50 with UO-31 was < 0.01 µM (active).

For `S=c1sc2ccccc2n1CN1CCN(Cc2ccccc2)CC1`, the GI50 with A498, in the test on CCRF-CEM, in the test on COLO 205, in the test on EKVX, in the test with HCT-116 and in the test on HL-60 was > 100 µM (inactive) in each case. The GI50 in the test on HOP-62, in the test on HT-29, in the test on KM12, with LOX IMVI, in the test with NCI-H460 and in the test on NCI-H522 was > 100 µM (inactive) in each case. Moreover, the GI50 in the test on RPMI-8226, in the test with RXF 393, in the test on SF-268, with SK-MEL-5, in the test with SN12C and with UACC-257 was > 100 µM (inactive) throughout. For the same molecule, in the test on UO-31, the GI50 was > 100 µM (inactive).

Turning to `N#CCCC1C(C#N)C2CC1C1C3C=CC(C3)C21` (stereo unspecified), the GI50 with CCRF-CEM, with COLO 205, in the test with EKVX, in the test on HCT-116, with HL-60 and in the test with HT-29 was > 100 µM (inactive) throughout. The GI50 with KM12 was > 100 µM (inactive); in the test on LOX IMVI it was > 100 µM (inactive); in the test on NCI-H522 it was > 100 µM (inactive); in the test with RPMI-8226 it was > 100 µM (inactive); with RXF 393, 63.4 µM (inactive); in the test with SF-268, > 100 µM (inactive). The GI50 in the test with SK-MEL-5, in the test on SR, with UACC-257 and in the test with UO-31 was > 100 µM (inactive) throughout.

For the molecule `Nc1nc(F)nc2c1ncn2C1OC(CO)C(O)C1O` (stereo unspecified), the GI50 is > 60.3 µM (inactive) in the test on A498; 0.344 µM (active) in the test on CCRF-CEM; 53.1 µM (inactive) in the test with COLO 205; > 100 µM (inactive) in the test on EKVX; 39.5 µM (inactive) in the test with HCT-116; 42.5 µM (inactive) in the test with HL-60. For the same molecule, the GI50 in the test on HOP-62 is 5.12 µM (inactive); in the test on HT-29, > 100 µM (inactive); in the test with KM12, > 100 µM (inactive); in the test on LOX IMVI it was 48.2 µM (inactive); with NCI-H460, 73.1 µM (inactive); with NCI-H522, 32.7 µM (inactive). The GI50 with RPMI-8226 was > 100 µM (inactive); with RXF 393, > 81.8 µM (inactive); in the test with SF-268 it was > 61.7 µM (inactive); with SK-MEL-5, 55.5 µM (inactive); in the test with SN12C, 3.89 µM (inactive); in the test with UACC-257, > 90.8 µM (inactive). Moreover, in the test on UO-31, the GI50 is 11.1 µM (inactive).

For the molecule `Cc1ccc(C(=O)N(Cc2ccccc2)Cc2ccccc2)cc1/N=N/N(C)C`, the GI50 in the test with CCRF-CEM is 24.2 µM (inactive); in the test on COLO 205, 21.5 µM (inactive); in the test with EKVX, 35.3 µM (inactive); in the test on HCT-116, 8.39 µM (inactive); in the test with HL-60 it was 22.6 µM (inactive); in the test on HOP-62, 23.1 µM (inactive). Further, the GI50 with HT-29 is 7.6 µM (inactive); with KM12, 8.32 µM (inactive); with LOX IMVI it was 7.23 µM (inactive); in the test on NCI-H460, 14.7 µM (inactive); in the test with NCI-H522, 9.44 µM (inactive); in the test on RPMI-8226, 29 µM (inactive). Also, the GI50 is 18.5 µM (inactive) in the test with SF-268; 10.7 µM (inactive) with SK-MEL-5; 14.6 µM (inactive) with SN12C; 27.7 µM (inactive) with SR; 6.75 µM (inactive) with UACC-257; 15.6 µM (inactive) in the test on UO-31.

With `COC(=O)[C@@H]1c2[nH]c3ccccc3c2C[C@@H]2c3ccccc3NC(=O)[C@@H]21`, the GI50 is > 100 µM (inactive) in the test with A498; > 77.6 µM (inactive) in the test with CCRF-CEM; > 82.2 µM (inactive) in the test on COLO 205; 53.5 µM (inactive) in the test with EKVX; 37.3 µM (inactive) with HCT-116; > 100 µM (inactive) in the test with HL-60. Also, the GI50 is 14.3 µM (inactive) in the test on HOP-62; > 100 µM (inactive) in the test on HT-29; > 100 µM (inactive) with KM12; 31 µM (inactive) with LOX IMVI; > 100 µM (inactive) in the test on NCI-H460; > 100 µM (inactive) in the test with NCI-H522. Also, the GI50 with RPMI-8226 is > 49.1 µM (inactive); in the test with RXF 393 it was 26.2 µM (inactive); in the test on SF-268 it was > 31.6 µM (inactive); in the test with SK-MEL-5, > 54 µM (inactive); in the test with SN12C, > 78.3 µM (inactive); in the test with UACC-257 it was > 85.1 µM (inactive). In addition, the GI50 in the test with UO-31 is > 100 µM (inactive).

As for `NC(=O)COc1c(Br)cc(Br)cc1Br`, the GI50 with CCRF-CEM, in the test on COLO 205, with EKVX, with HCT-116, with HOP-62 and with HT-29 was > 100 µM (inactive) in each case. For the same molecule, the GI50 with KM12, with NCI-H460, with NCI-H522, in the test on RPMI-8226, in the test with SF-268 and in the test on SK-MEL-5 was > 100 µM (inactive) in each case. Further, the GI50 in the test on SN12C, in the test with SR, in the test with UACC-257 and in the test with UO-31 was > 100 µM (inactive) each time.

As for `CN(Cc1ccccc1)C(=O)c1ccccc1C(=O)O`, the GI50 with CCRF-CEM, in the test with COLO 205, in the test on EKVX, in the test on HCT-116, in the test on HL-60 and in the test with HT-29 was > 100 µM (inactive) each time. The GI50 in the test with KM12, in the test with LOX IMVI, in the test with NCI-H460, in the test with NCI-H522, with RPMI-8226 and in the test with RXF 393 was > 100 µM (inactive) throughout. The GI50 in the test with SF-268, in the test with SN12C, in the test on SR, in the test on UACC-257 and with UO-31 was > 100 µM (inactive) each time.

Consider `CCCOc1ccc(/C=C\c2cc(OC)c(OC)c(OC)c2)cc1`, for which the GI50 was 26.6 µM (inactive) in the test on A498; > 100 µM (inactive) with CCRF-CEM; 39.2 µM (inactive) in the test with COLO 205; 87.5 µM (inactive) with EKVX; 40.5 µM (inactive) with HCT-116; 18.9 µM (inactive) with HL-60. In addition, the GI50 with HOP-62 was > 100 µM (inactive); with HT-29, 26.5 µM (inactive); with KM12, 28.4 µM (inactive); in the test with LOX IMVI, 27.4 µM (inactive); in the test with NCI-H460 it was 68.2 µM (inactive); with NCI-H522, 13.2 µM (inactive). The GI50 is 14.5 µM (inactive) with RPMI-8226; 40.1 µM (inactive) with RXF 393; > 100 µM (inactive) with SF-268; 13.6 µM (inactive) in the test with SK-MEL-5; 65.3 µM (inactive) with SN12C; 54 µM (inactive) with UACC-257. The GI50 with UO-31 was 33.2 µM (inactive).

Take `C#CC1(O)CCC2C3CCc4cc(Oc5nc(F)nc(-c6c7ccccc7c7sc8ccccc8n67)n5)ccc4C3CC[C@@]21C` (stereo partly specified): the GI50 in the test with CCRF-CEM was 35.2 µM (inactive); in the test on COLO 205 it was > 100 µM (inactive); with HCT-116, > 100 µM (inactive); with HL-60, > 100 µM (inactive); with HOP-62, > 100 µM (inactive); with HT-29 it was > 100 µM (inactive). Moreover, the GI50 was > 100 µM (inactive) with KM12; > 100 µM (inactive) in the test with NCI-H460; 14.4 µM (inactive) in the test on NCI-H522; > 100 µM (inactive) in the test with RPMI-8226; > 100 µM (inactive) in the test on SF-268; > 100 µM (inactive) in the test on SK-MEL-5. For the same molecule, the GI50 in the test with SR was 32.1 µM (inactive); with UACC-257, > 100 µM (inactive); in the test on UO-31, > 100 µM (inactive).

The values are drawn from ChEMBL document CHEMBL1201862, “PubChem BioAssay data set” (2004).
